Results taken from ChEMBL document CHEMBL4002623, “Synthesis and in vitro activity of dicationic indolyl diphenyl ethers as novel potent antibiotic agents against drug-resistant bacteria” (Bioorg Med Chem Lett, 2017).
Values after ≈ are worked out from the molar mass of the structure shown.

Columns and labels:
[1] = tested on: Staphylococcus aureus; assay: Antibacterial activity against methicillin-resistant Staphylococcus aureus ATCC 33591 by agar dilution method; assay type: functional
[2] = tested on: Staphylococcus aureus; assay: Antibacterial activity against methicillin-sensitive Staphylococcus aureus ATCC 29213 by agar dilution method; assay type: functional
[3] = tested on: Klebsiella aerogenes; assay: Antibacterial activity against Enterobacter aerogenes 45102 by agar dilution method; assay type: functional
[4] = Cytotoxicity against HEK293T cells after 48 hrs by MTS assay; assay type: cell-based, HEK-293T; conditions: human
[5] = tested on: Enterococcus faecium; assay: Antibacterial activity against vancomycin-sensitive Enterococcus faecium 09-10 by agar dilution method; assay type: functional
[6] = tested on: Proteus vulgaris; assay: Antibacterial activity against Proteus vulgaris ATCC 29905 by agar dilution method; assay type: functional
[7] = tested on: Staphylococcus epidermidis; assay: Antibacterial activity against methicillin-resistant Staphylococcus epidermidis 09-3 by agar dilution method; assay type: functional
[8] = tested on: Staphylococcus aureus; assay: Antibacterial activity against methicillin-sensitive Staphylococcus aureus 15 by agar dilution method; assay type: functional
[9] = tested on: Enterococcus faecalis; assay: Antibacterial activity against vancomycin-sensitive Enterococcus faecalis 09-8 by agar dilution method; assay type: functional
[10] = tested on: Enterococcus faecium; assay: Antibacterial activity against vancomycin-resistant Enterococcus faecium 05-8 by agar dilution method; assay type: functional
[11] = tested on: Providencia rettgeri; assay: Antibacterial activity against Providencia rettgeri ATCC 31052 by agar dilution method; assay type: functional
[12] = tested on: Klebsiella pneumoniae; assay: Antibacterial activity against extended-spectrum beta-lactamase-negative Klebsiella pneumoniae 7 by agar dilution method; assay type: functional
[13] = tested on: Enterococcus faecalis; assay: Antibacterial activity against vancomycin-resistant Enterococcus faecalis ATCC 51299 by agar dilution method; assay type: functional
[14] = tested on: Staphylococcus aureus; assay: Antibacterial activity against methicillin-resistant Staphylococcus aureus 09-13 by agar dilution method; assay type: functional
[15] = tested on: Morganella morganii; assay: Antibacterial activity against Morganella morganii ATCC 25830 by agar dilution method; assay type: functional
[16] = tested on: Klebsiella pneumoniae; assay: Antibacterial activity against Klebsiella pneumoniae ATCC BAA-2146 expressing NDM-1 by agar dilution method; assay type: functional
[17] = tested on: Klebsiella pneumoniae; assay: Antibacterial activity against extended-spectrum beta-lactamase-negative Klebsiella pneumoniae 09-8 by agar dilution method; assay type: functional
[18] = tested on: Proteus mirabilis; assay: Antibacterial activity against Proteus mirabilis 09-1 by agar dilution method; assay type: functional
[19] = tested on: Pseudomonas aeruginosa; assay: Antibacterial activity against Pseudomonas aeruginosa PAO1 by agar dilution method; assay type: functional
[20] = tested on: Escherichia coli; assay: Antibacterial activity against extended-spectrum beta-lactamase-negative Escherichia coli 09-20 by agar dilution method; assay type: functional
[21] = tested on: Serratia marcescens; assay: Antibacterial activity against Serratia marcescens 41002 by agar dilution method; assay type: functional
[22] = tested on: Klebsiella pneumoniae; assay: Antibacterial activity against extended-spectrum beta-lactamase-positive Klebsiella pneumoniae 09-25 by agar dilution method; assay type: functional
[23] = tested on: Enterococcus faecalis; assay: Antibacterial activity against vancomycin-sensitive Enterococcus faecalis ATCC 29212 by agar dilution method; assay type: functional
[24] = tested on: Escherichia coli; assay: Antibacterial activity against extended-spectrum beta-lactamase-positive Escherichia coli 09-1 by agar dilution method; assay type: functional
[25] = tested on: Enterococcus faecalis; assay: Antibacterial activity against vancomycin-resistant Enterococcus faecalis 09-9 by agar dilution method; assay type: functional
[26] = tested on: Staphylococcus epidermidis; assay: Antibacterial activity against methicillin-sensitive Staphylococcus epidermidis ATCC 12228 by agar dilution method; assay type: functional
[27] = tested on: Staphylococcus epidermidis; assay: Antibacterial activity against methicillin-sensitive Staphylococcus epidermidis 09-9 by agar dilution method; assay type: functional
[28] = tested on: Salmonella typhi; assay: Antibacterial activity against Salmonella typhi H901 by agar dilution method; assay type: functional, Salmonella enterica subsp. enterica serovar Typhi; conditions: Salmonella enterica
[29] = tested on: Escherichia coli; assay: Antibacterial activity against extended-spectrum beta-lactamase-negative Escherichia coli ATCC 25922 by agar dilution method; assay type: functional
[30] = tested on: Enterobacter cloacae; assay: Antibacterial activity against Enterobacter cloacae 45301 by agar dilution method; assay type: functional
[31] = tested on: Klebsiella pneumoniae; assay: Antibacterial activity against extended-spectrum beta-lactamase-positive Klebsiella pneumoniae ATCC 700603 by agar dilution method; assay type: functional
[32] = tested on: Acinetobacter calcoaceticus; assay: Antibacterial activity against Acinetobacter calcoaceticus ATCC 19606 by agar dilution method; assay type: functional
[33] = tested on: Pseudomonas aeruginosa; assay: Antibacterial activity against Pseudomonas aeruginosa 09-14 by agar dilution method; assay type: functional
[34] = tested on: Staphylococcus aureus; assay: Antibacterial activity against methicillin-sensitive Staphylococcus aureus 09-6 by agar dilution method; assay type: functional
[35] = tested on: Citrobacter freundii; assay: Antibacterial activity against Citrobacter freundii ATCC 43864 by agar dilution method; assay type: functional
[36] = tested on: Enterococcus faecium; assay: Antibacterial activity against vancomycin-resistant Enterococcus faecium ATCC 700221 by agar dilution method; assay type: functional
[37] = tested on: Pseudomonas aeruginosa; assay: Antibacterial activity against Pseudomonas aeruginosa ATCC 27853 by agar dilution method; assay type: functional
[38] = tested on: Escherichia coli; assay: Antibacterial activity against extended-spectrum beta-lactamase-negative Escherichia coli 1515 by agar dilution method; assay type: functional

| SMILES | MIC [1] [µg/mL] | MIC [2] [µg/mL] | MIC [3] [µg/mL] | CC50 at 48 h [4] [µg/mL] | MIC [5] [µg/mL] | MIC [6] [µg/mL] | MIC [7] [µg/mL] | MIC [8] [µg/mL] | MIC [9] [µg/mL] | MIC [10] [µg/mL] | MIC [11] [µg/mL] | MIC [12] [µg/mL] | MIC [13] [µg/mL] | MIC [14] [µg/mL] | MIC [15] [µg/mL] | MIC [16] [µg/mL] | MIC [17] [µg/mL] | MIC [18] [µg/mL] | MIC [19] [µg/mL] | MIC [20] [µg/mL] | also measured |
| --- | --- | --- | --- | --- | --- | --- | --- | --- | --- | --- | --- | --- | --- | --- | --- | --- | --- | --- | --- | --- | --- |
| CCC(CC)NC(=N)c1ccc2cc(-c3ccc(Oc4ccc(-c5cc6ccc(C(=N)NC(CC)CC)cc6[nH]5)cc4)cc3)[nH]c2c1 | 2 (≈ 3.2 µM) | 2 (≈ 3.2 µM) | 16 (≈ 25.6 µM) | 25.4 (≈ 40.7 µM) | 4 (≈ 6.4 µM) | 16 (≈ 25.6 µM) | 1 (≈ 1.6 µM) | 2 (≈ 3.2 µM) | 2 (≈ 3.2 µM) | 4 (≈ 6.4 µM) | 16 (≈ 25.6 µM) | 16 (≈ 25.6 µM) | 4 (≈ 6.4 µM) | 2 (≈ 3.2 µM) | 8 (≈ 12.8 µM) | 16 (≈ 25.6 µM) | 16 (≈ 25.6 µM) | 32 (≈ 51.2 µM) | 32 (≈ 51.2 µM) | 16 (≈ 25.6 µM) | MIC [21]: 16 µg/mL (≈ 25.6 µM); MIC [22]: 16 µg/mL (≈ 25.6 µM); MIC [23]: 4 µg/mL (≈ 6.4 µM); MIC [24]: 16 µg/mL (≈ 25.6 µM); MIC [25]: 8 µg/mL (≈ 12.8 µM); MIC [26]: 0.5 µg/mL (≈ 0.8 µM); MIC [27]: 2 µg/mL (≈ 3.2 µM); MIC [28]: 16 µg/mL (≈ 25.6 µM); MIC [29]: 16 µg/mL (≈ 25.6 µM); MIC [30]: 16 µg/mL (≈ 25.6 µM); MIC [31]: 16 µg/mL (≈ 25.6 µM); MIC [32]: 16 µg/mL (≈ 25.6 µM); MIC [33]: 32 µg/mL (≈ 51.2 µM); MIC [34]: 2 µg/mL (≈ 3.2 µM); MIC [35]: 16 µg/mL (≈ 25.6 µM); MIC [36]: 2 µg/mL (≈ 3.2 µM); MIC [37]: 16 µg/mL (≈ 25.6 µM); MIC [38]: 32 µg/mL (≈ 51.2 µM) |
| N=C(NC1CCC1)c1ccc2cc(-c3ccc(Oc4ccc(-c5cc6ccc(C(=N)NC7CCC7)cc6[nH]5)cc4)cc3)[nH]c2c1 | 64 (≈ 108 µM) | 64 (≈ 108 µM) | > 128 | 32.6 (≈ 55 µM) | 64 (≈ 108 µM) | > 128 | 16 (≈ 27 µM) | 64 (≈ 108 µM) | 64 (≈ 108 µM) | > 128 | > 128 | > 128 | 64 (≈ 108 µM) | 64 (≈ 108 µM) | > 128 | > 128 | > 128 | > 128 | > 128 | > 128 | MIC [21]: > 128 µg/mL; MIC [22]: > 128 µg/mL; MIC [23]: 64 µg/mL (≈ 108 µM); MIC [24]: > 128 µg/mL; MIC [25]: 64 µg/mL (≈ 108 µM); MIC [26]: 8 µg/mL (≈ 13.5 µM); MIC [27]: 8 µg/mL (≈ 13.5 µM); MIC [28]: > 128 µg/mL; MIC [29]: > 128 µg/mL; MIC [30]: > 128 µg/mL; MIC [31]: > 128 µg/mL; MIC [32]: > 128 µg/mL; MIC [33]: > 128 µg/mL; MIC [34]: 64 µg/mL (≈ 108 µM); MIC [35]: > 128 µg/mL; MIC [36]: 32 µg/mL (≈ 54 µM); MIC [37]: > 128 µg/mL; MIC [38]: > 128 µg/mL |
| N=C(NC1CCCC1)c1ccc2cc(-c3ccc(Oc4ccc(-c5cc6ccc(C(=N)NC7CCCC7)cc6[nH]5)cc4)cc3)[nH]c2c1 | 64 (≈ 103 µM) | 128 (≈ 206 µM) | > 128 | 28.9 (≈ 46.6 µM) | ≥ 128 | > 128 | 16 (≈ 25.8 µM) | 128 (≈ 206 µM) | 128 (≈ 206 µM) | > 128 | > 128 | > 128 | 128 (≈ 206 µM) | 64 (≈ 103 µM) | > 128 | > 128 | > 128 | > 128 | > 128 | > 128 | MIC [21]: > 128 µg/mL; MIC [22]: > 128 µg/mL; MIC [23]: 128 µg/mL (≈ 206 µM); MIC [24]: > 128 µg/mL; MIC [25]: 128 µg/mL (≈ 206 µM); MIC [26]: 8 µg/mL (≈ 12.9 µM); MIC [27]: 8 µg/mL (≈ 12.9 µM); MIC [28]: > 128 µg/mL; MIC [29]: > 128 µg/mL; MIC [30]: > 128 µg/mL; MIC [31]: > 128 µg/mL; MIC [32]: > 128 µg/mL; MIC [33]: > 128 µg/mL; MIC [34]: 128 µg/mL (≈ 206 µM); MIC [35]: > 128 µg/mL; MIC [36]: ≥ 128 µg/mL; MIC [37]: > 128 µg/mL; MIC [38]: > 128 µg/mL |
